# According to US10292963B2, “Suppression and treatment of viruses” (priority 2013, dated 2019):
# Assay: Additional benefits observed in people taking betaine
# Format: in vivo, human
# Text: While the main benefit of a person or pet taking vitamin C and betaine in combination is the prevention/suppression of tumors, as mentioned before, additional benefits can be obtained depending upon the levels taken. Betaine is known to improve cardiovascular health, and can benefit people with fatty deposits in the liver. […] After only a few weeks of taking the betaine, cholesterol levels are reduced and the ability to lose weight is improved.
# [1] = after only a few weeks of taking the betaine
smiles,measurement,setting,value
"C[N+](C)(C)CC(=O)[O-] [betaine, trimethylglycine]",tendency to be light headed on getting up after prolonged squatting or kneeling,"after a few doses at about one and a half to about three grams per day, especially older people",considerably lessened
same,ability to lose weight,[1],improved
same,cholesterol levels,[1],reduced
